Experimental data reported in US20130261133A1, “Therapeutic Compounds for Protozoal and Microbial Infections and Cancer” (THE UNIVERSITY OF MONTANA, priority 2012, published 2013).
Several values for one entry are separate records, joined by “and”; a condition that tells them apart may be missing. Equal values may be shown once. Read-outs that look alike come from different tables or passages of the source.

Key:
[1] = tested on: P. falciparum clone W2/Indochina; assay: In vitro malaria assay, [3H]-hypoxanthine incorporation; type: cell-based; conditions: Plasmodium falciparum, W2, 72 h, read-out: IC50 Plasmodium
Description: a. In vitro Parasite Culturing: P. falciparum clone W2/Indochina was grown in continuous culture using RPMI 1640 media containing 10% heat-inactivated type A+ human plasma, sodium bicarbonate (2.4 g/L), HEPES (5.94 g/L) and 4% washed human type A+ erythrocytes. Cultures were gassed with a 90% N2, 5% O2 and 5% CO2 mixture followed by incubation at 37° C. b. Assay Preparation: Test compounds at 5 mg/mL in DMSO were diluted 1:500 and then serially diluted in duplicate over 11 concentrations. P. falciparum cultures with >70% ring stage parasites were diluted to 0.5-0.7% parasitemia and 1.5% hematocrit in RPMI 1640 media. In 96-well plates a volume of 90 μl/well of parasitized erythrocytes was added on top of 10 μL/well of the test compound. A separate plate containing chloroquine, dihydroartemisinin and atovaquone was added to each set of assay plates as control drugs. A Beckman Coulter Biomek 3000 was used to dispense test compounds, control drugs and parasitized erythrocytes into the microtiter plates. Positive and negative controls were included in each plate. Positive controls consisted of parasitized erythrocytes and negative controls consisted of non-parasitized erythrocytes at 1.5% hematocrit in RPMI 1640 media. Assay plates were placed into a modulator incubator chamber and equilibrated with 90% N2, 5% O2 and 5% CO2 mixture then incubated at 37° C. for 48 hours. After 48 hours, approximately 0.05 μCi of [^3H]-hypoxanthine monohydrochloride was added to each well of the assay plates. Plates were put back into the modulator incubation chamber, gassed with the 90% N2, 5% O2 and 5% CO2 mixture then incubated at 37° C. for an additional 24 hours. After 72 hours total incubation time the plates were frozen at −80° C. until later processed for parasite growth determinations. c. Assay Plate Processing: Assay plates were harvested using a Perkin Elmer FilterMate Harvester. The incorporation of [^3H]-hypoxanthine into nucleic acid was measured using a Perkin Elmer Topcount NXT Microplate Scintillation & Luminescence Counter. d. Data Analysis: Data analysis was performed using a custom database manager (Dataspects, Inc). Nonlinear regression analysis was used to calculate EC50.

[2] = tested on: S. aureus 13709; assay: MIC broth microdilution, Alamar Blue; type: cell-based; conditions: minimum inhibitory concentration
[3] = tested on: E. faecalis; assay: MIC broth microdilution, Alamar Blue; type: cell-based; conditions: minimum inhibitory concentration
[4] = tested on: S. pyogenes; assay: MIC broth microdilution, Alamar Blue; type: cell-based; conditions: minimum inhibitory concentration
[5] = tested on: C. glabrata; assay: MIC broth microdilution, Alamar Blue; type: cell-based; conditions: minimum inhibitory concentration
[6] = tested on: B. subtilis; assay: MIC broth microdilution, Alamar Blue; type: cell-based; conditions: minimum inhibitory concentration
[7] = tested on: P. aeruginosa; assay: MIC broth microdilution, Alamar Blue; type: cell-based; conditions: minimum inhibitory concentration
[8] = tested on: B. anthracis; type: cell-based; conditions: minimum inhibitory concentration
[9] = tested on: C. albicans; assay: MIC broth microdilution, Alamar Blue; type: cell-based; conditions: minimum inhibitory concentration
[10] = tested on: Leishmania donovani; assay: Antileishmanial assay, Leishmania in infected macrophages (L. donovani); conditions: for IC50: Leishmania donovani, Macrophage, read-out: IC50 Leishmania in infected macrophages; for Selectivity Index: IC50 for HepG2 cells/IC50 for Leishmania donovani
[11] = tested on: Leishmania amazonensis; assay: Antileishmanial assay, Leishmania in infected macrophages (L. amazonensis); conditions: Leishmania amazonensis; for IC50: Macrophage, read-out: IC50 Leishmania in infected macrophages
[12] = tested on: HepG2 cells; assay: Cytotoxicity against human liver (HepG2) cells, Alamar Blue; type: cell-based
Description: Several of these analogues were also evaluated for cytotoxicity against human liver (HepG2) cells. Of particular interest was that compounds 47 and 48 were approximately an order of magnitude less cytotoxic as compared to compound 1.
Adherent cell lines were maintained in Eagle's Minimal Essential Media (Sigma-Aldrich, St. Louis, Mo., USA) with 2 mM glutamine and Earle's Balanced Salt Solution (HyClone, Logan, Utah, USA) adjusted to contain 1.5 g/L sodium bicarbonate, 0.1 mM non-essential amino acids, 1 mM sodium pyruvate and 10% fetal calf serum. Fetal calf serum used in these assays was lot matched throughout. All cultures were maintained under a humidified 5% CO2 atmosphere at 37° C., had media refreshed twice weekly and were subcultured by trypsinization and resuspension at a ratio of 1:5 each week. Toxicity assays were conducted between passages 10-20. Target compound toxicity was measured by incubating the test compound with the cells for 4 hours, washing the cells and finally treating the cells with Alamar Blue. After 12-24 hours, the fluorescence of the reduced dye was measured. Fluorescence intensity as a function of test compound concentration was fit to the Fermi equation, using non-linear least squares regression analysis, to estimate IC50 values.

[13] = tested on: leishmaniasis (LV82 PM infection), liver parasitemia; assay: In vivo efficacy: liver parasitemia in BALB/c mice with leishmaniasis; conditions: 10 mg/kg i.p.; for % Reduction (Average) in liver parasitemia: infected BALB/c mice
Description: The following protocols were used to prepare the various treatments described in Table 2: • a. Miltefosine ([…] stock solution in sterile PBS): 7.5 mg miltefosine was weighed and put in a eppendorf tube, then 0.75 mL of sterile PBS was added. After vortexing, a clear solution was formed. Make 1 mg/mL solution daily by diluting 100 μL of 10 mg/mL miltefosine solution in 900 μL sterile PBS. • b. Vehicle control: 5% (v/v) DMSO, 50% (v/v) PEG 400, 10% (v/v) Ethanol, and 35% (v/v) distilled water. • c. Compound 47 (2 mg/mL solution of compound 47 in PEG 400/Ethanol vehicle): […]. Dilute the above solution 1:20 with PEG 400/EtOH/water daily. After vortexing and warming up at 37° C. for 30 min., a clear solution formed. • d. Compound 48 (2 mg/mL solution of compound 48 in PEG 400/Ethanol vehicle): 6.8 mg of compound 48 was dissolved in 0.17 mL of DMSO to make a 40 mg/mL stock solution. After vortexing, a yellowish-brown solution was formed. Diluted the above solution 1:20 with PEG 400/EtOH/water daily. After vortexing a clear solution formed. • e. Compound 50 (2 mg/mL solution of compound 50 in PEG 400/Ethanol vehicle): 8.4 mg of compound 50 was dissolved in 0.21 mL of DMSO to make a 40 mg/mL stock solution. After vortexing, a dark yellowish-brown solution was formed. Diluted the above solution 1:20 with PEG 400/EtOH/water. After vortexing a clear solution formed.
(§1) Compounds 47, 48, and 50 were then evaluated in animal studies with BALB/c mice with leishmaniasis. Compounds were delivered via i.p. injection at 10 mg/kg, with untreated, vehicle, and miltefosine controls as described in Table 2. […] Miltefosine, the only oral treatment currently available to treat leishmaniasis in humans, was also evaluated in the BALB/c mice for comparison purposes.

[14] = Body and organ weights of infected, treated BALB/c mice; type: in vivo
Description: as §1

[15] = HepG2, read-out: IC50 mammalian HepG2 cells

SMILES | IC50 [1] | MIC S. aureus [2] | MIC E. faecalis [3] | MIC S. pyogenes [4] | MIC C. glabrata [5] | MIC B. subtilis [6] | MIC P. aeruginosa [7] | MIC B. anthracis [8] | MIC C. albicans [9] | IC50 [10] | IC50 [12, 15] | Selectivity Index [10] | other results
C=C[C@@H](C#CC#C[C@H](O)CCCCCCCCCCCCCCC)OC(C)=O (stereo in doubt) [Compound 44, (3S,8R)-8-hydroxytricosa-1-en-4,6-diyn-3-yl acetate] | 2.14 µg/mL | >1000 | >1000 | >1000 | >1000 | >1000 | >1000 | >1000 | >1000 | 0.287 µM | – | – | –
C=C[C@H](C#CC#C[C@H](O)CCCCCCCCC)OC(C)=O [Compound 2, (3R,8R)-8-hydroxyheptadeca-1-en-4,6-diyn-3-yl acetate] | 8.07 µg/mL | – | – | – | – | – | – | – | – | – | – | – | anti-Leishmanial activity at 10 μM [11]: no anti-Leishmanial activity; IC50 [11]: > 10 µM
C=C[C@H](C#CC#C[C@@H](O)CCCCCCCCC)OC(C)=O [Compound 3, (3R,8S)-8-hydroxyheptadeca-1-en-4,6-diyn-3-yl acetate] | 8.15 µg/mL | – | – | – | – | – | – | – | – | – | – | – | anti-Leishmanial activity at 10 μM [11]: no anti-Leishmanial activity; IC50 [11]: > 10 µM
C=C[C@@H](C#CC#C[C@H](O)CCC)OC(C)=O [Compound 20, (3S,8R)-8-hydroxyundeca-1-en-4,6-diyn-3-yl acetate] | 9.18 µg/mL | 1000 | 1000 | 250 | 250 | 250 | >1000 | 1000 | 250 | 0.197 µM | 57 ± 2 µM | 290 | –
C=C[C@@H](C#CC#C[C@H](N)CCCCCCCCC)OC(C)=O [Compound 45, (3S,8R)-8-aminoheptadeca-1-en-4,6-diyn-3-yl acetate] | – | 1000 | 1000 | 250 | 500 | 250 | >1000 | 250 | 250 | – | – | – | –
C=C[C@@H](C#CC#C[C@@H](CCCCCCCCC)NS(C)(=O)=O)OC(C)=O [Compound 46, (3S,8R)-8-(methylsulfonamido)heptadeca-1-en-4,6-diyn-3-yl acetate] | 4.47 µg/mL | >1000 | >1000 | 8 | >1000 | 4 | >1000 | >1000 | >1000 | 0.055 µM | 29 ± 1 µM | 530 | –
C=C[C@@H](C#CC#C[C@@H](CCCCCCCCC)NC(=O)c1ccccc1)OC(C)=O [Compound 47, (3S,8R)-8-benzamidoheptadeca-1-en-4,6-diyn-3-yl acetate] | 4.85 µg/mL | >1000 | >1000 | >1000 | >1000 | >1000 | >1000 | >1000 | >1000 | 0.035 µM | 486 ± 14 µM | 14,000 | IC50 ([12]; HepG2, read-out: IC50 against the HepG2 cell line): 486 ± 14 µM; LDU mean ± SD ([13]; group mean, n=4): 2979.6; % Reduction (Average) in liver parasitemia [13]: 26.0%; % Reduction (Average) in liver parasitemia ([13]; listed as compound 47): 26%; # of amastigotes per 200 nuclei ([13]; liver, individual mice): 596 and 543 and 595 and 582; LDU ([13]; total liver parasitemia, individual mice): 2960.3 and 2834.7 and 2961.0 and 3162.3; Body weight ([14]; 10 mg/kg i.p., individual mice, Table 4): 18.3 g (2×) and 19.5 g and 18.2 g; Mean body weight of mice Post-treatment ([14]; post-treatment, 10 mg/kg i.p., group mean): 18.6 g; Mean body weight of mice Pre-treatment ([14]; pre-treatment (baseline), group mean): 19.2 g
C=C[C@@H](C#CC#C[C@@H](CCCCCCCCC)OS(C)(=O)=O)OC(C)=O [Compound 49, (3S,8R)-8-((methylsulfonyl)oxy)heptadeca-1-en-4,6-diyn-3-yl acetate] | 2.13 µg/mL | 250 | 500 | 125 | >1000 | 250 | >1000 | 250 | >1000 | 0.061 µM | – | – | –
